{"source": "patent US7314858B2", "about": "“Retrocyclins: antiviral and antimicrobial peptides” (priority 2001, dated 2008)", "key": {"[1]": {"tested_on": "HIV-1 strain IIIB", "experiment": "HIV-1 IIIB infection of H9 cells, p24 antigen ELISA", "format": "cell-based", "experimental": "FIG. 1. Circular minidefensins reduce HIV-1 infection of H9 cells. HIV-I strain IIIB (MOI=10^−2) was incubated with 2.5×10^5 H9 cells in the presence or absence of 20 μg/ml RTD-1, RTD-2 or RTD-3. p24 antigen release was monitored by ELISA on days 3, 6, and 9. Assay sensitivity=10 pg/ml.\nImmortalized CD4^+ H9 cells, which are permissive for infection with this strain, were maintained in RPMI supplemented with 10% heat-inactivated fetal calf serum (FCS), 10 mM HEPES, 2 mM glutamine, 100 U of penicillin/ml, and 10 μg of streptomycin/ml (R10 media). Cells (2.5×10^5/100 μl) were incubated with virus (multiplicity of infection (MOI)=10^−2) in the presence or absence of 20 μg/ml RTD-1, RTD-2 or RTD-3 for 3 hrs at 37° C./5% CO2. The cells were washed in R10 media, seeded in 48-well tissue culture plates in 1 ml R10 media, and incubated at 37° C./5% CO2 for 9 days. Aliquots of cell supernatant were removed at the specified time points and analyzed by a sensitive ELISA (DuPont NEN) that quantitates p24 antigen of HIV-1. The three circular rhesus minidefensins were similarly active, inhibiting HIV-1 by 100-1000 fold by 9 days post-inoculation (note the logarithmic scale).\nEither HIV-1-permissive H9 cells were used as targets, or primary CD4^+ lymphocytes from HIV-1-seronegative donors generated from freshly purified peripheral blood mononuclear cells (PBMC) stimulated with a CD3-CD8 bispecific monoclonal antibody. After approximately 7 days, when 98% of these cells co-expressed CD3 and CD4, they were infected with HIV-1 with or without retrocyclin or other test peptide. These cells were maintained in RPMI containing 10% FCS supplemented with 2 mM glutamine, 100 U of penicillin/ml, 10 μg of streptomycin/ml, and 50 U of interleukin 2/ml (R10-50 media).\nMature retrocyclin was prepared by a three-step process."}, "[2]": {"tested_on": "E. coli ML-35p", "experiment": "Two-stage radial diffusion assay", "format": "cell-based, Escherichia coli", "experimental": "(§1) FIG. 4. Effect of salt on antibacterial activity of circular minidefensins. Human retrocyclin and monkey RTD-1 were tested against our standard lab stains: E. coli ML-35p, P. aeruginosa MR 3007, L. monocytogenes EGD, and S. aureus 930918. The bars show MIC values±SEM values that resulted from 3-6 radial diffusion assays per organism and assay condition.\n(§2) The effects of NaCl on the antimicrobial activity of retrocyclin and RTD-1, from two-stage radial diffusion assays, are compared in FIG. 4."}, "[3]": {"tested_on": "ME-180 cervical carcinoma cells", "details": "100 μg/ml"}, "[4]": {"tested_on": "H9 cells", "experiment": "MTT cytotoxicity assay", "format": "cell-based, human", "details": "100 μg/ml", "experimental": "(§3) FIG. 8. Cytotoxicity of antimicrobial peptides against H9 cells. Retrocyclin, RTD-1 and PG-1 (a porcine-derived peptide with anti-HIV-1 activity) were tested for cytotoxicity using an MTT assay for cell proliferation. Note that the EC50 of Retrocyclin and RTD-1 were >100 μg/ml, concentrations well above their antiviral concentration.\n(§4) Retrocyclin is not cytotoxic. […] Retrocyclin was not hemolytic for human erythrocytes."}, "[5]": {"experiment": "MTT cytotoxicity assay", "format": "cell-based, human", "details": "human, H9 cells", "experimental": "as §3, §4"}, "[6]": {"tested_on": "human erythrocytes"}, "[7]": {"experiment": "Preliminary surface plasmon resonance, sphingolipid binding", "details": "preliminary SPR"}, "[8]": {"tested_on": "L. monocytogenes EGD", "experiment": "Two-stage radial diffusion assay", "format": "cell-based, Listeria monocytogenes", "experimental": "as §1, §2"}, "[9]": {"tested_on": "HIV-IIIB", "experiment": "Direct inactivation of HIV-1 virions (preincubation with virus, dilution, infection of H9 cells)", "format": "cell-based", "details": "200 μg/ml, 30 min, then diluted 190-fold", "experimental": "FIG. 12. […] Retrocyclin (2-200 μg/ml) was incubated with HIV-IIIB (MOI=10^−2) diluted in R10 media prior to infecting H9 cells. p24 antigen release was measured by ELISA. Limit of detection=10 pg/ml.\nTo determine if retrocyclin directly inactivated HIV-1 virions, HIV-IIIB (MOI 10^−2) was incubated with 2 μg/ml, 20 μg/ml, or 200 μg/ml retrocyclin for 30 min at room temperature in R10 media. […] Viral replication was measured by collecting supernatant for 9 days at 3 day intervals to quantify HIV-1 p24 antigen by ELISA (FIG. 12). […] In this respect, the actions of retrocyclin are different from the direct inactivation of herpes simplex virus previously observed with human and rabbit α-defensins."}}, "note": "Entries after “also recorded” stand apart in the source; their conditions may differ. Where a SMILES comes first, the peptide text is derived from it. Bridges are numbered along the chain shown (N, C = ends).", "data": [{"smiles": "CC[C@H](C)[C@@H]1NC(=O)CNC(=O)[C@H](CCCNC(=N)N)NC(=O)CNC(=O)[C@@H]2CSSC[C@H](NC1=O)C(=O)N[C@@H](CCCNC(=N)N)C(=O)N[C@H]1CSSC[C@H](NC(=O)[C@H](CCCNC(=N)N)NC(=O)[C@@H]3CSSC[C@H](NC(=O)[C@H]([C@@H](C)CC)NC1=O)C(=O)NCC(=O)N[C@@H](CCCNC(=N)N)C(=O)NCC(=O)N[C@@H]([C@@H](C)CC)C(=O)N3)C(=O)N[C@@H]([C@@H](C)CC)C(=O)N2", "note": "[RC-100, Retrocyclin] (cyclo(GICRCICGRGICRCICGR); disulfide 3-16, 5-14, 7-12)", "values": [{"measurement": "concentration required for complete protection against HIV-1 infection", "setting": "[1]", "value": 10, "unit": "µg/mL"}, {"measurement": "inhibition of HIV-1 replication (p24)", "setting": "[1]; H9 cells, IIIB (X4), peptide 10-20 μg/ml", "value": "complete suppression; also recorded: antiviral"}, {"measurement": "antiviral activity", "setting": "[1]; at <2 μg/ml, n=5", "value": "no significant antiviral activity"}, {"measurement": "effect of salt on antimicrobial activity", "setting": "[2]; hypersalinity (175 mM NaCl)", "value": "only modestly inhibitory"}, {"measurement": "antimicrobial activity", "setting": "[2]; physiological (100 mM) NaCl", "value": "strong activity"}, {"measurement": "cytotoxicity (MTT)", "setting": "[3]", "value": "little to no cytotoxicity"}, {"measurement": "cytotoxicity (MTT)", "setting": "[4]", "value": "little to no cytotoxicity"}, {"measurement": "EC50", "setting": "[5]", "value": "> 100", "unit": "µg/mL"}, {"measurement": "hemolysis", "setting": "[6]", "value": "not hemolytic"}, {"measurement": "binding to sphingolipids (galactosylceramide)", "setting": "[7]", "value": "binds with high affinity"}, {"measurement": "effect of salt on antimicrobial activity", "setting": "[8]; hypersalinity (175 mM NaCl)", "value": "only modestly inhibitory"}, {"measurement": "antimicrobial activity", "setting": "[8]; physiological (100 mM) NaCl", "value": "strong activity"}, {"measurement": "HIV titer after incubation of virus with peptide", "setting": "[9]", "value": "not reduced"}]}]}
